Measurements as given in patent US9914730B2, “Azaquinazoline inhibitors of Atypical protein Kinase C” (Ignyta, Inc., priority 2012, dated 2018).

Molecular target: T1, full-length human PKCι (Homo sapiens, UniProt P41743)
T1 construct: Recombinant, full-length human PKCι expressed in Sf21 insect cells is also commercially available; purchased; host or cells: Sf21 insect cells
T1 sequence (P41743 1-596): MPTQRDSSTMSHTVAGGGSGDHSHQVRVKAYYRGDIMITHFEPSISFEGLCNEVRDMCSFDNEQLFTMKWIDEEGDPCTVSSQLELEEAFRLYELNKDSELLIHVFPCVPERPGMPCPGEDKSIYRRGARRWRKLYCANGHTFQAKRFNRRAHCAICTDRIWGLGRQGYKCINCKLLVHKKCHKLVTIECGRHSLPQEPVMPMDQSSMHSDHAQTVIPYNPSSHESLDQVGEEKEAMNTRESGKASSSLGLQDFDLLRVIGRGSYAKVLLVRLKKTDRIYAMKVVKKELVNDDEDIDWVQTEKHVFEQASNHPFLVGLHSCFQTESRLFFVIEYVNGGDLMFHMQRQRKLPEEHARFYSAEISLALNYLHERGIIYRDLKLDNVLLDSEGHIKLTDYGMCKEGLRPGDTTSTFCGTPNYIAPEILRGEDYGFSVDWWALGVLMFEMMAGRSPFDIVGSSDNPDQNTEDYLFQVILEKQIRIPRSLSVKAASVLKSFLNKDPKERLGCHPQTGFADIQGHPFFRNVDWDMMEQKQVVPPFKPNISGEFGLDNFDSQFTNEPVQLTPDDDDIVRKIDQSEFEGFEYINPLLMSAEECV
Experiment: PKCι IC50 IMAP assay, full-length PKCι at 150 μM ATP
Assay type: biochemical
Settings: read-out: IC50 in IMAP assay against full length PKCi at 150 μM ATP
How it was run: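 Compounds in 4% final DMSO are mixed with Sf21-derived full-length human PKCι (typically 15 pM) and 100 nM FAM-labelled pseudosubstrate peptide, then started with 150 μM ATP. Reaction runs 60 min at room temperature, is quenched with IMAP development reagent for 2 h, and fluorescence polarisation is measured to derive IC50.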

`COc1cc(Nc2cc(-c3nc(N4CCNCC4)c4c(OC)cncc4n3)ccn2)ccc1N1CCOCC1` [Example 382, (3-Methoxy-4-morpholin-4-yl-phenyl)-[4-(5-methoxy-4-piperazin-1-yl-pyrido[3,4-d]pyrimidin-2-yl)-pyridin-2-yl]-amine] was tested, and the IC50 was less than 100 nM.

Molecule `COc1ccc(CC(=O)Nc2cc(-c3nc(N4CCNCC4)c4c(OC)cncc4n3)ccn2)cc1` [Example 374, 2-(4-Methoxy-phenyl)-N-[4-(5-methoxy-4-piperazin-1-yl-pyrido[3,4-d]pyrimidin-2-yl)-pyridin-2-yl]-acetamide] has an IC50 of less than 100 nM.

For `Brc1cncc2nc(N3CCOCC3)nc(N3CCNCC3)c12` [Example 1015, 5-Bromo-2-morpholin-4-yl-4-piperazin-1-yl-pyrido[3,4-d]pyrimidine], the IC50 was 100 to 1000 nM.

Molecule `NC(=O)C1CCN(c2nc(-c3ccnc(Nc4c(F)cccc4F)c3)nc3cncc(C4CC4)c23)CC1` [Example 656, 1-{5-Cyclopropyl-2-[2-(2,6-difluoro-phenylamino)-pyridin-4-yl]-pyrido[3,4-d]pyrimidin-4-yl}-piperidine-4-carboxylic acid amide] has an IC50 of 100 to 1000 nM.

Molecule `Fc1cnccc1-c1nc(N2CCNC(C(F)(F)F)C2)c2ccncc2n1` (stereo not drawn) [Example 66, 1-[2-(3-fluoropyridin-4-yl)pyrido[3,4-d]-pyrimidin-4-yl]-3-(trifluoromethyl)-piperazine] has an IC50 of 10000 to 40000 nM.

`NCc1ccc(-c2nccc3c(NC[C@@H](N)Cc4ccccc4)nc(-c4ccncc4)nc23)o1` [Example 121, N-[(2S)-2-amino-3-phenylpropyl]-8-[5-(amino-methyl)-furan-2-yl]-2-(pyridin-4-yl)pyrido[3,4-d]pyrimidin-4-amine] gave an IC50 of 100 to 1000 nM.

Work on `Fc1cccc(F)c1Nc1cc(-c2nc(N3CCNC4(CC4)C3)c3c(C4CC4)cncc3n2)ccn1` [Example 829, {4-[5-Cyclopropyl-4-(4,7-diaza-spiro[2.5]oct-7-yl)-pyrido[3,4-d]pyrimidin-2-yl]-pyridin-2-yl}-(2,6-difluoro-phenyl)-amine] yielded an IC50 of less than 100 nM.

`OC1CCN(c2nc(-c3ccnc(Nc4ccccc4F)c3)nc3cncc(C4CC4)c23)CC1` [Example 274, 1-{5-Cyclopropyl-2-[2-(2-fluoro-phenylamino)-pyridin-4-yl]-pyrido[3,4-d]pyrimidin-4-yl}-piperidin-4-ol] gave an IC50 of 100 to 1000 nM.

Molecule `Fc1cc(F)c(Nc2cc(-c3nc(N4CCNCC4)c4c(C(F)(F)F)cncc4n3)ccn2)nc1F` [Example 2195, [4-(4-Piperazin-1-yl-5-trifluoromethyl-pyrido[3,4-d]pyrimidin-2-yl)-pyridin-2-yl]-(3,5,6-trifluoro-pyridin-2-yl)-amine] has an IC50 of less than 100 nM.

Work on `CN(c1nc(-c2ccnc(Nc3c(F)cccc3F)c2)nc2cncc(C3CC3)c12)C1CCN(CC(F)F)CC1` [Example 2123, {5-Cyclopropyl-2-[2-(2,6-difluoro-phenylamino)-pyridin-4-yl]-pyrido[3,4-d]pyrimidin-4-yl}-[1-(2,2-difluoro-ethyl)-piperidin-4-yl]-methyl-amine] yielded an IC50 of 100 to 1000 nM.

`COc1cncc2nc(-c3ccnc(Nc4ccc(C)nc4)c3)nc(N3CCNCC3)c12` [Example 393, [4-(5-Methoxy-4-piperazin-1-yl-pyrido[3,4-d]pyrimidin-2-yl)-pyridin-2-yl]-(6-methyl-pyridin-3-yl)-amine] was tested, and the IC50 was less than 100 nM.

With `COc1cncc2nc(-c3ccnc(Nc4cc(C#N)ccn4)c3)nc(N[C@@H]3CCNC3)c12` [Example 332, 2-{4-[5-Methoxy-4-((R)-pyrrolidin-3-ylamino)-pyrido[3,4-d]pyrimidin-2-yl]-pyridin-2-ylamino}-isonicotinonitrile] the IC50 was less than 100 nM.

Work on `Cc1noc(C)c1-c1nccc2c(NC[C@@H](N)Cc3ccccc3)nc(-c3ccncc3)nc12` [Example 112, N-[(2S)-2-amino-3-phenylpropyl]-8-(dimethyl-1,2-oxazol-4-yl)-2-(pyridin-4-yl)-pyrido[3,4-d]-pyrimidin-4-amine] yielded an IC50 of 10000 to 40000 nM.

`C[C@@H](Nc1cc(-c2nc(N3CCNC(C)(C)C3)c3c(C4CC4)cncc3n2)ccn1)c1ccccc1` [Example 2007, {4-[5-Cyclopropyl-4-(3,3-dimethyl-piperazin-1-yl)-pyrido[3,4-d]pyrimidin-2-yl]-pyridin-2-yl}-((R)-1-phenyl-ethyl)-amine] showed an IC50 of less than 100 nM.

In the case of `CC(C)[C@H]1CN(c2nc(-c3ccncc3)nc3cnccc23)CCN1` [Example 62, (3S)-3-(propan-2-yl)-1-[2-(pyridin-4-yl)-pyrido[3,4-d]-pyrimidin-4-yl]-piperazine], the IC50 is reported as 1000 to 10000 nM.

For `CN1CCN(c2cccc(Nc3cc(-c4nc(N5CCNCC5)c5c(C6CC6)cncc5n4)ccn3)c2)CC1` [Example 681, [4-(5-Cyclopropyl-4-piperazin-1-yl-pyrido[3,4-d]pyrimidin-2-yl)-pyridin-2-yl]-[3-(4-methyl-piperazin-1-yl)-phenyl]-amine], the IC50 was less than 100 nM.

Molecule `c1ccc(Nc2cc(-c3nc(N4CCNC5CC54)c4c(C5CC5)cncc4n3)ccn2)cc1` (stereo not drawn) [Example 537, {4-[5-Cyclopropyl-4-(2,5-diaza-bicyclo-[4.1.0]hept-2-yl)-pyrido[3,4-d]-pyrimidin-2-yl]-pyridin-2-yl}-phenyl-amine] has an IC50 of less than 100 nM.

With `C[C@H]1CN(c2nc(-c3ccnc4[nH]c(C(C)(C)C)cc34)nc3cncc(C4CCC4)c23)CCN1` [Example 2008, 2-(2-tert-Butyl-1H-pyrrolo[2,3-b]pyridin-4-yl)-5-cyclobutyl-4-((S)-3-methyl-piperazin-1-yl)-pyrido[3,4-d]pyrimidine] the IC50 was less than 100 nM.

In the case of `COc1cncc2nc(-c3ccnc(Nc4ccccc4)c3)nc(N3CCC(N4CCOCC4)CC3)c12` [Example 354, {4-[5-Methoxy-4-(4-morpholin-4-yl-piperidin-1-yl)-pyrido[3,4-d]pyrimidin-2-yl]-pyridin-2-yl}-phenyl-amine], the IC50 is reported as 1000 to 10000 nM.

For “N-[(2S)-2-amino- 3-phenylpropyl]- 8-(furan-3-yl)-2- (pyridin-4-yl)- pyrido[3,4-d]- pyrimidin-4- amine [Example 113]”, the IC50 was 100 to 1000 nM.

With `Fc1cnc(Nc2cc(-c3nc(N4CCNCC4)c4c(C5CCC5)cncc4n3)ccn2)c(F)c1` [Example 783, [4-(5-Cyclobutyl-4-piperazin-1-yl-pyrido[3,4-d]pyrimidin-2-yl)-pyridin-2-yl]-(3,5-difluoro-pyridin-2-yl)-amine] the IC50 was less than 100 nM.

`Fc1cnc(F)c(Nc2cc(-c3nc(N4CCNCC4)c4c(C5CC5)cncc4n3)ccn2)c1` [Example 749, [4-(5-Cyclopropyl-4-piperazin-1-yl-pyrido[3,4-d]pyrimidin-2-yl)-pyridin-2-yl]-(2,5-difluoro-pyridin-3-yl)-amine] showed an IC50 of less than 100 nM.

`CN1CCN(c2cccc(Nc3cc(-c4nc(N5CC[C@H](O)[C@H](O)C5)c5c(C6CC6)cncc5n4)ccn3)c2)CC1` (racemic) [Example 602, (+/−)-(cis)-1-(5-Cyclopropyl-2-{2-[3-(4-methyl-piperazin-1-yl)-phenylamino]-pyridin-4-yl}-pyrido[3,4-d]pyrimidin-4-yl)-piperidine-3,4-diol] showed an IC50 of less than 100 nM.

For `Fc1cccc(F)c1Nc1cc(-c2nc(SC3CCNCC3)c3c(C4CC4)cncc3n2)ccn1` [Example 791, {4-[5-Cyclopropyl-4-(piperidin-4-ylsulfanyl)-pyrido[3,4-d]pyrimidin-2-yl]-pyridin-2-yl}-(2,6-difluoro-phenyl)-amine], the IC50 was less than 100 nM.

`COc1cncc2nc(-c3ccnc(Nc4ccccc4)c3)nc(N3CC(CO)C3)c12` [Example 433, {1-[5-Methoxy-2-(2-phenylamino-pyridin-4-yl)-pyrido[3,4-d]pyrimidin-4-yl]-azetidin-3-yl}-methanol] was tested, and the IC50 was 1000 to 10000 nM.

Molecule `COCC(C)(C)c1cc2c(-c3nc(N4CCNCC4)c4c(C5CC5)cncc4n3)ccnc2[nH]1` [Example 2108, 5-Cyclopropyl-2-[2-(2-methoxy-1,1-dimethyl-ethyl)-1H-pyrrolo[2,3-b]pyridin-4-yl]-4-piperazin-1-yl-pyrido[3,4-d]pyrimidine] has an IC50 of less than 100 nM.

Work on `Fc1cnc(Nc2cc(-c3nc(N4CCC(C5CCOCC5)C4)c4c(C5CC5)cncc4n3)ccn2)c(F)c1` (stereo not drawn) [Example 2173, (4-{5-Cyclopropyl-4-[3-(tetrahydro-pyran-4-yl)-pyrrolidin-1-yl]-pyrido[3,4-d]pyrimidin-2-yl}-pyridin-2-yl)-(3,5-difluoro-pyridin-2-yl)-amine] yielded an IC50 of 1000 to 10000 nM.

For `Fc1ccc(F)c(Nc2cc(-c3nc(N4CCNCC4)c4c(Nc5c(F)ccc(F)c5F)cncc4n3)ccn2)c1F` [Example 261, {4-Piperazin-1-yl-2-[2-(2,3,6-trifluoro-phenylamino)-pyridin-4-yl]-pyrido[3,4-d]pyrimidin-5-yl}-(2,3,6-trifluoro-phenyl)-amine], the IC50 was 100 to 1000 nM.

`c1cc(-c2nc(N3CCNCC3)c3c(C4CCC4)cncc3n2)cc(NC2CCOCC2)n1` [Example 2210, [4-(5-Cyclobutyl-4-piperazin-1-yl-pyrido[3,4-d]pyrimidin-2-yl)-pyridin-2-yl]-(tetrahydro-pyran-4-yl)-amine] showed an IC50 of less than 100 nM.

`c1cncc(Nc2cc(-c3nc(N[C@@H]4CCNC4)c4ccncc4n3)ccn2)c1` [Example 376, {2-[2-(Pyridin-3-ylamino)-pyridin-4-yl]-pyrido[3,4-d]pyrimidin-4-yl}-(R)-pyrrolidin-3-yl-amine] gave an IC50 of 100 to 1000 nM.
